Common to all, as to test: biochemical
What all share (set-up): KINOMEscan scanMAX active site-directed competition binding assay, percent of control, 468 kinases
What all share (details): competition binding, percent of control

One experiment deals with EPHA7 (Homo sapiens, UniProt Q15375). In a few lines: (§1)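 KINOMEscan active site-directed competition binding assay against 468 human kinases with 100 μM S-carvone. Binding expressed as % of control, with 35% of control as the inhibition threshold.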
EPHA7, sequence (Q15375 whole entry): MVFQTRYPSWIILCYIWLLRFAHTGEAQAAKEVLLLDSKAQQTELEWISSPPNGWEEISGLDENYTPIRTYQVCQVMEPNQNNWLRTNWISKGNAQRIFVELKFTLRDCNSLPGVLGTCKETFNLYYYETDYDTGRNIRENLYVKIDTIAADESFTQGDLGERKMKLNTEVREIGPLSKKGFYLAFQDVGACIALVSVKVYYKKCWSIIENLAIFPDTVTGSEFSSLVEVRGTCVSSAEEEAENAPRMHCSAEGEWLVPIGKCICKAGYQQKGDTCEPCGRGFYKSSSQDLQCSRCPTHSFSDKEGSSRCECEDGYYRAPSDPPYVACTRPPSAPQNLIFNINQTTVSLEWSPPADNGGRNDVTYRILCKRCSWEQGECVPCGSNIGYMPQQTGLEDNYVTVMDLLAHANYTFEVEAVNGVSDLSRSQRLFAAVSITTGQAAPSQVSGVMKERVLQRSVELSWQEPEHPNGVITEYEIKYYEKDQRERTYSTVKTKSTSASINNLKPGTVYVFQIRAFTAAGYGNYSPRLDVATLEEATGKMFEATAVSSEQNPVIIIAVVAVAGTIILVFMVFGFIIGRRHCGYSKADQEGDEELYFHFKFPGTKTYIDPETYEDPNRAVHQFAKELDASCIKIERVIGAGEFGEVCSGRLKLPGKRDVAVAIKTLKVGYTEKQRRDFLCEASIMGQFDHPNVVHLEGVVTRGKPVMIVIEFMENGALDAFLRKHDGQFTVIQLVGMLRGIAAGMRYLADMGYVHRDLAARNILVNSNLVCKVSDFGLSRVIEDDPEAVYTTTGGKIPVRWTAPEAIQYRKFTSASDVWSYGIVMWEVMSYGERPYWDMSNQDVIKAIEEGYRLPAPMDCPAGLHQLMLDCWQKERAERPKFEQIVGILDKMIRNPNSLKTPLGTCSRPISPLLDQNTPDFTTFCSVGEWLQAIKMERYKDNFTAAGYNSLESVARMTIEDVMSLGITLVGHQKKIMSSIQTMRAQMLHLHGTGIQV
A further experiment has as its target FGFR3(G697C) (Homo sapiens, UniProt P22607, G697C). The gist of the method: as §1
A further experiment has as its target T1, NDR2 (Homo sapiens, UniProt Q9Y2H1).
T1 construct: gene STK38L
In a few lines:
as §1

The target of the next experiment is T2, AMPK-alpha2 (Homo sapiens, UniProt P54646).
T2 construct: gene PRKAA2
The gist of the method:
as §1

In a further experiment the target is MTOR (Homo sapiens, UniProt P42345). The gist of the method:
as §1

In the next experiment the target is HIPK1 (Homo sapiens, UniProt Q86Z02). In a few lines:
as §1

A further experiment has as its target CLK2 (Homo sapiens, UniProt P49760). In a few lines: as §1
The next experiment has as its target EPHB4 (Homo sapiens, UniProt P54760). The gist of the method:
as §1

The next experiment concerns the target T3, MEK3 (Homo sapiens, UniProt P46734).
T3 construct: gene MAP2K3
In a few lines:
as §1

The target in the next experiment is EPHB3 (Homo sapiens, UniProt P54753). In a few lines:
as §1

The target in another experiment is MAK (Homo sapiens, UniProt P20794). The gist of the method: as §1
The target in experiment [1] is T4, ABL1(Q252H)-nonphosphorylated (Homo sapiens, UniProt P00519, Q252H).
T4 construct: nonphosphorylated
In a few lines: as §1

A further experiment addresses HIPK2 (Homo sapiens, UniProt Q9H2X6). The gist of the method: as §1
The next experiment addresses CSNK2A2 (Homo sapiens, UniProt P19784). In a few lines: as §1
The target in experiment [2] is T5, RPS6KA4(Kin.Dom.2-C-terminal) (Homo sapiens, UniProt O75676).
T5 construct: Kin.Dom.2-C-terminal
T5 sequence (O75676 whole entry): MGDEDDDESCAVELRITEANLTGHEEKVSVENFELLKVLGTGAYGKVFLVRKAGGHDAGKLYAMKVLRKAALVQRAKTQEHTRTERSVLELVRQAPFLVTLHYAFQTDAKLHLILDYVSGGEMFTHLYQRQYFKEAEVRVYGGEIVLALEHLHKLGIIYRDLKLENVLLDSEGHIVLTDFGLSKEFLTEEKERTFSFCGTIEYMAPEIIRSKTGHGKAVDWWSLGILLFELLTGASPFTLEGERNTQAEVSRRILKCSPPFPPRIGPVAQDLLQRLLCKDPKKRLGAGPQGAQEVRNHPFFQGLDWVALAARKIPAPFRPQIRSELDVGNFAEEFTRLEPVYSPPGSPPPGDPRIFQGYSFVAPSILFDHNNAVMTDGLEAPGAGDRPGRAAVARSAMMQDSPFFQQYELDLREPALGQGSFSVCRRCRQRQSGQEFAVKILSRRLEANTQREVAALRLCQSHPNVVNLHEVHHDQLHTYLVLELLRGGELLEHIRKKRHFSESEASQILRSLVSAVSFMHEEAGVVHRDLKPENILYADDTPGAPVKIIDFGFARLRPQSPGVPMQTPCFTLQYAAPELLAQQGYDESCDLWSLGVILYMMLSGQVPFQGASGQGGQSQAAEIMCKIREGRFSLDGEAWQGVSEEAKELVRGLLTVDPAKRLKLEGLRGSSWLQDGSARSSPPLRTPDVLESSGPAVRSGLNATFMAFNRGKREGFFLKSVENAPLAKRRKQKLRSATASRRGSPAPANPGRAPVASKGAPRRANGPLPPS
The gist of the method: as §1

In another experiment the target is EIF2AK1 (Homo sapiens, UniProt Q9BQI3). The gist of the method:
as §1

The target of a further experiment is MAP3K15 (Homo sapiens, UniProt Q6ZN16). The gist of the method: as §1
The target of a further experiment is CAMK4 (Homo sapiens, UniProt Q16566). The gist of the method: as §1
CAMK4, sequence (Q16566 whole entry): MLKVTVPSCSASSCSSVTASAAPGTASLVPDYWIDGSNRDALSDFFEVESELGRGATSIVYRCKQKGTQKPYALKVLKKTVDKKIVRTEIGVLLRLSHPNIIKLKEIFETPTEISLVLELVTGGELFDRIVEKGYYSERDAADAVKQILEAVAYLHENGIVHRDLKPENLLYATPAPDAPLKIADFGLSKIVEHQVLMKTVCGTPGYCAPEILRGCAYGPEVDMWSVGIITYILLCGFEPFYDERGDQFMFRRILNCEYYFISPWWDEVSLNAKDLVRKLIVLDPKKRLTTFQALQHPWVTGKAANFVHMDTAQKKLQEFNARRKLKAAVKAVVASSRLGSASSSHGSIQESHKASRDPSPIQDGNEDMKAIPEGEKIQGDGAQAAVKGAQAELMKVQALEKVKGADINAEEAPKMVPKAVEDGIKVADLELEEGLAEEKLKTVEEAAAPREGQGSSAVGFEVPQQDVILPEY
In another experiment the target is VRK2 (Homo sapiens, UniProt Q86Y07). In a few lines: as §1
The target in the next experiment is T6, MST1 (Homo sapiens, UniProt Q13043).
T6 construct: gene STK4
In a few lines:
as §1

In the next experiment the target is CSNK1A1L (Homo sapiens, UniProt Q8N752). The gist of the method: as §1
CSNK1A1L, sequence (Q8N752 whole entry): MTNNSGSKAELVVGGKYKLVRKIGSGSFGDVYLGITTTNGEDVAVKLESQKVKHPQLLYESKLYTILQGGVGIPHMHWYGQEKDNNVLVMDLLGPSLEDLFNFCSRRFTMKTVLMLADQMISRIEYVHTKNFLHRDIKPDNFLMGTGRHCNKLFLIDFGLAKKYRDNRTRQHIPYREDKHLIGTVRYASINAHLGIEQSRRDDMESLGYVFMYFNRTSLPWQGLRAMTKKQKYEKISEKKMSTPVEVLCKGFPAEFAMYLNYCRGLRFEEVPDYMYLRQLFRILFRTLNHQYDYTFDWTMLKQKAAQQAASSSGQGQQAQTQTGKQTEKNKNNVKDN

Structures are written as SMILES.

T3 sequence (P46734 whole entry): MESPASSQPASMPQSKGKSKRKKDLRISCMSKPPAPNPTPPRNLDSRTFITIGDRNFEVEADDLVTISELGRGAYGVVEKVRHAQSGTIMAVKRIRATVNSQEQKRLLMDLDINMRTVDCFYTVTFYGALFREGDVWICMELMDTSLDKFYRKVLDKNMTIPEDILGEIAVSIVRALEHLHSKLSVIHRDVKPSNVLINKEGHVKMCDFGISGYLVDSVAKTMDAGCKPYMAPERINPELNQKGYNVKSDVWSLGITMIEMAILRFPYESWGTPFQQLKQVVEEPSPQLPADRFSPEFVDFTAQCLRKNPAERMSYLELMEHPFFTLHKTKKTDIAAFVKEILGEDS
CLK2, sequence (P49760 whole entry): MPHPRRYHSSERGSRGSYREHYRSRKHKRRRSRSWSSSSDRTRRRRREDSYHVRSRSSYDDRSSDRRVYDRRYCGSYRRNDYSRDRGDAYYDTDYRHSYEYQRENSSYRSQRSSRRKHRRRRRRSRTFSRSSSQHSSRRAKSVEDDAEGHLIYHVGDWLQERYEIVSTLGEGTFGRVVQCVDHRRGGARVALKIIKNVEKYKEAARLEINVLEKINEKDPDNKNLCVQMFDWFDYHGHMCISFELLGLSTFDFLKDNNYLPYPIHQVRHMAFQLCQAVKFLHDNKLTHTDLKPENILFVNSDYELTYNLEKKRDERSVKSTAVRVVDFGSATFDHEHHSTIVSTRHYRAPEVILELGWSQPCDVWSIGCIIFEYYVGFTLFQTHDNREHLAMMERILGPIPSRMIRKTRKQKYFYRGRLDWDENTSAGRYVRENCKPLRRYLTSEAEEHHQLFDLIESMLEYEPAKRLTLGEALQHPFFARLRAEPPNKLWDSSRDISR
HIPK2, sequence (Q9H2X6 whole entry): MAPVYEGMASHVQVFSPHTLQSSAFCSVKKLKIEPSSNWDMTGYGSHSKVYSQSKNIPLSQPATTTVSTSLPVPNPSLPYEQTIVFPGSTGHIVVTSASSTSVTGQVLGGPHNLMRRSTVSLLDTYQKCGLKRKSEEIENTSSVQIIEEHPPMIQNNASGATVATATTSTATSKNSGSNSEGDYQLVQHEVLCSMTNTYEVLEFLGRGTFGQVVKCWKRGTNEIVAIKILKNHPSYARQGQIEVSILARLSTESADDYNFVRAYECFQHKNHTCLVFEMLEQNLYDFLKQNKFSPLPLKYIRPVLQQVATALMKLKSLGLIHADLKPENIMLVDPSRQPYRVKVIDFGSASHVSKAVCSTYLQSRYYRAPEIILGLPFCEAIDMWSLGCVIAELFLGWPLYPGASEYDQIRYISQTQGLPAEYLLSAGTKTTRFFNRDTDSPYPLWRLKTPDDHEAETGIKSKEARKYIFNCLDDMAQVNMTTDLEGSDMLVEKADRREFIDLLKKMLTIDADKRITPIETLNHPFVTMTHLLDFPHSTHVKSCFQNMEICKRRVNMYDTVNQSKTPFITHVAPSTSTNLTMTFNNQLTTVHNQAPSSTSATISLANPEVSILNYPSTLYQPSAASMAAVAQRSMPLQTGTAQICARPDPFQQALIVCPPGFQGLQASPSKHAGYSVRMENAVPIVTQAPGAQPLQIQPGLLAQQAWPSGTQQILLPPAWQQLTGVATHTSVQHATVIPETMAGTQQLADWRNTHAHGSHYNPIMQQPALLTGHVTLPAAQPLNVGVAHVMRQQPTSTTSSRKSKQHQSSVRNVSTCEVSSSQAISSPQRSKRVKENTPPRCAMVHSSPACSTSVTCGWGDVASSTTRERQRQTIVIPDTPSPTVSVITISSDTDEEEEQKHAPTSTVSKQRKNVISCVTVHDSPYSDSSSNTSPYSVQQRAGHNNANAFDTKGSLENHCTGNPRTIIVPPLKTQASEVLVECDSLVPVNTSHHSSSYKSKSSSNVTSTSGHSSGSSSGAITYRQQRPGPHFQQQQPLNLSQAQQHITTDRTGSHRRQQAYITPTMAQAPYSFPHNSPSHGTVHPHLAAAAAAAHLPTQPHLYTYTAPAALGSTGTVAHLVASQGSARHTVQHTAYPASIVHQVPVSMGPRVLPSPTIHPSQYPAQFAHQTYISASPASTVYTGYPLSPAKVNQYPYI
CSNK2A2, sequence (P19784 whole entry): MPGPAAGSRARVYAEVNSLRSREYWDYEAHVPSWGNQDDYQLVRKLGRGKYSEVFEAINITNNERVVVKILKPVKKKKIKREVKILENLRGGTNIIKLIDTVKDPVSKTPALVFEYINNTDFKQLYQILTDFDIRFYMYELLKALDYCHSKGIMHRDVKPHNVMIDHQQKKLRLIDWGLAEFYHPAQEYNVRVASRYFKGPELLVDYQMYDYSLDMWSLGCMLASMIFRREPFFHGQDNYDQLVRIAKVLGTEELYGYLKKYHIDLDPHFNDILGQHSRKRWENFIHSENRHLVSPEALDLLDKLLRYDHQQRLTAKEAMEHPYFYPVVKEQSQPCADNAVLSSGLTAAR

In the case of `C=C(C)[C@H]1CC=C(C)C(=O)C1` [S-carvone], the remaining binding at 100 µM at EPHA7 stood at 91%; at FGFR3(G697C), 75%; on NDR2 it was 83%; at AMPK-alpha2 it was 88%; at MTOR it was 78%; on HIPK1, 61%. For the same compound, the remaining binding at 100 µM at CLK2 was found to be 60%; at EPHB4, 68%; on MEK3, 84%; at EPHB3 it was 62%; on MAK, 73%; in [1] it was 66%. Further, the remaining binding at 100 µM at HIPK2 came to 76%; at CSNK2A2, 87%; in experiment [2], 75%; at EIF2AK1 it was 75%; at MAP3K15, 93%; on CAMK4 it was 70%. Besides, the figures for the remaining binding at 100 µM on VRK2, at MST1 and at CSNK1A1L were 81%, 81% and 85%, respectively.

The values are drawn from publication PMC10174618, “Monoterpenoid aryl hydrocarbon receptor allosteric antagonists protect against ultraviolet skin damage in female mice” (Nature Communications, 2023).
